Two compounds from PMC3480437, “Abscisic Acid Signaling: Thermal Stability Shift Assays as Tool to Analyze Hormone Perception and Signal Transduction” (PLoS ONE, 2012) can be followed below.

Holding throughout (assay type): binding
In assay [1] the target is T1, SnRK2.6 (Arabidopsis thaliana, UniProt Q940H6).
T1 construct: gene SRK2E; full length, recombinant from E. coli; untagged in TSA, H6GST fusion in kinase assay
T1 sequence (Q940H6 1-362): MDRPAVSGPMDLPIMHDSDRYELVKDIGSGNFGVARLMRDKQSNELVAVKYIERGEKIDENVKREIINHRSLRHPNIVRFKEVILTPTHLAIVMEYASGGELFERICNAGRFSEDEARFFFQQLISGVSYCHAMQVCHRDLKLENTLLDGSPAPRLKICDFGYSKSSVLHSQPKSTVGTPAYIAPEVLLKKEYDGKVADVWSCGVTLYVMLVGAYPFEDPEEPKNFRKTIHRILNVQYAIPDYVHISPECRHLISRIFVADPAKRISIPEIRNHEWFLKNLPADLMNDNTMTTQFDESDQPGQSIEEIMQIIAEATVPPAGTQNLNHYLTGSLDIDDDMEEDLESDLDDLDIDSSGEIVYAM
As to the kind of experiment: thermal shift (SYPRO Orange). The settings on record: 50 µM compound, 5 µM kinase.

Assay [2] has as its target T2, SnRK2.3 (Arabidopsis thaliana, UniProt Q39193).
T2 construct: gene SRK2I; full length, recombinant from E. coli; untagged and as N-terminal MBP fusion (NAAAEF linker)
T2 sequence (Q39193 1-361): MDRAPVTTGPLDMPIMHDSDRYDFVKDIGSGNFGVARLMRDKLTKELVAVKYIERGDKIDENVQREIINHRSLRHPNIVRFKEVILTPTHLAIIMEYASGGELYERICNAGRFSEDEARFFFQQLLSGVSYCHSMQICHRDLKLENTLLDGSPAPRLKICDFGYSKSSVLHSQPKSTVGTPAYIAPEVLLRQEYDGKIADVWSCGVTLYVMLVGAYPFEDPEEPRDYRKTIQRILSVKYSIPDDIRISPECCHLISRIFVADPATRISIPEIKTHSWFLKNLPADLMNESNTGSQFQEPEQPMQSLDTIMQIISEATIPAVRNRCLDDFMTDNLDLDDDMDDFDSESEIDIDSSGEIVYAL
As to the kind of experiment: thermal shift (SYPRO Orange). Particulars: 50 µM compound, 5 µM kinase.

Assay [3] has as its target T3, SnRK2.2 (Arabidopsis thaliana, UniProt Q39192).
T3 construct: gene SRK2D
T3 sequence (Q39192 1-362): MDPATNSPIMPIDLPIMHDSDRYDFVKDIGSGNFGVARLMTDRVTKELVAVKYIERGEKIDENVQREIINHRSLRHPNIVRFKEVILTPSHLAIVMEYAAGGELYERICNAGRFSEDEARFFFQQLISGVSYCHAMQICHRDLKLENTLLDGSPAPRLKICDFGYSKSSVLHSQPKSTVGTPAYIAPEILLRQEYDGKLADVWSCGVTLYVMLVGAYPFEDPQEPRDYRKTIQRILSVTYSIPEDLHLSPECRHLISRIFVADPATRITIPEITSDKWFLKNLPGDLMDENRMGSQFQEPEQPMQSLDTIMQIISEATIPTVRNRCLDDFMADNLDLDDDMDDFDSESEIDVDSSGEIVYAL
As to the kind of experiment: thermal shift (SYPRO Orange). The settings on record: 50 µM compound.

The target of assay [4] is T4, PYL1/HAB1 coreceptor complex (Arabidopsis thaliana, UniProt Q8VZS8).
T4 construct: H6GST-PYL1 on SPA beads plus HAB1 (172-511), both from E. coli; 1:1 complex; with Protein phosphatase 2C 16
T4 sequence (Q8VZS8 36-211): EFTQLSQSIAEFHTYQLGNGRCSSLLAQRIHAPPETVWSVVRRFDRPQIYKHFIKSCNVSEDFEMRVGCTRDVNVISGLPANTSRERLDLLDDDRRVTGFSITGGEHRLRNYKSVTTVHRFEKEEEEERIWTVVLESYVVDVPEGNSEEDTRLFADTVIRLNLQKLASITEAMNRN
T4 sequence (Q9CAJ0 172-511 partner): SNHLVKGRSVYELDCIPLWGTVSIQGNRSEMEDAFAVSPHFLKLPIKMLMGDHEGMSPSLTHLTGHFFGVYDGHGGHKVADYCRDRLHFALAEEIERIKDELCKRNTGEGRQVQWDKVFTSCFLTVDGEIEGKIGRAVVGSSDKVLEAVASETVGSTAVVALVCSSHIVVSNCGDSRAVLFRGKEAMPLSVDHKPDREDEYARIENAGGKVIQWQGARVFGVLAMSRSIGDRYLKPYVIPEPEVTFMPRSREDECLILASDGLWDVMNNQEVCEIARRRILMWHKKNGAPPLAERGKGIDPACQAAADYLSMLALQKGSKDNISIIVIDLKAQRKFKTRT
As to the kind of experiment: radioligand competition (SPA, 3H-ABA). The settings on record: 450 nM 3H-ABA, 10 µM HAB1, MOPS pH 7.4, room temperature; curve only in figure.

For assay [5], the target named is T5, PYL2 (Arabidopsis thaliana, UniProt O80992).
T5 construct: residues 14-188, recombinant from E. coli, receptor alone without PP2C; dimeric
T5 sequence (O80992 14-188): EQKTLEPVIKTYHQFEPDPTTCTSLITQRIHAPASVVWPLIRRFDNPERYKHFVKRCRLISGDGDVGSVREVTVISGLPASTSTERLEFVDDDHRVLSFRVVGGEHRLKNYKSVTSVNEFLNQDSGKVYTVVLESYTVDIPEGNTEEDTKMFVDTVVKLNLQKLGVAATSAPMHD
Description: thermal shift (SYPRO Orange). The settings on record: 500 µM pyrabactin, no PP2C; apo Tm not derivable.

On to `O=C1NC(=O)c2c1c(-c1ccccc1Cl)cc1[nH]c3ccc(O)cc3c21` [Wee1 inhibitor], for which the dTm in assay [1], in assay [2] and in assay [3] was over 3 °C throughout.

Consider `O=S(=O)(NCc1ccccn1)c1ccc(Br)c2ccccc12` [pyrabactin], for which the “radioligand competition (SPA, 3H-ABA)” value in assay [4] was “Competition of the interactions between ^3H-ABA and the PYL1/HAB1 (A)”. In addition, the “thermal shift (SYPRO Orange)” value in assay [5] is “suggesting that pyrabactin directly binds PYL2, but with an affinity that is lower”.
